Drawing on ChEMBL document CHEMBL3286217, “Structure-based efforts to optimize a non-β-lactam inhibitor of AmpC β-lactamase” (Bioorg Med Chem, 2014), this text covers Ki for 7 molecules.

Assay [1] is described as follows: Competitive inhibition of beta-lactamase AmpC (unknown origin) by Lineweaver-Burk plot analysis.
Assay [2] in a line: Inhibition of beta-lactamase AmpC (unknown origin) by UV-Vis spectrophotometry.
Assay [3] in a line: Reversible competitive inhibition of beta-lactamase AmpC (unknown origin).

A word on the Ki: it is a measure of affinity in units of concentration, obtained from inhibition or displacement. The low end stands for a stronger hold on the target, the high end for a looser hold on the target. Turning to `O=C(O)c1ccc(CCNS(=O)(=O)c2ccsc2C(=O)O)cc1`, in assay [1], the Ki is 26 µM.
`O=C(O)c1ccc(NS(=O)(=O)c2ccsc2C(=O)O)cc1` showed a Ki in assay [2] of 1.7 µM.
Same read-out and setting: in the case of `O=C(O)c1sccc1S(=O)(=O)NCc1ccc(Cl)cc1` it was 112 µM; in that of `O=C(O)c1ccc(CNS(=O)(=O)c2ccsc2C(=O)O)cc1`, 18 µM.
Molecule `O=C(O)c1sccc1S(=O)(=O)Nc1ccc(Cl)cc1` gave a Ki in assay [3] of 26 µM.
Regarding `O=C(O)c1ccc(CCCNS(=O)(=O)c2ccsc2C(=O)O)cc1`, the inhibitory constant (Ki) in assay [2] stood at 19 µM.
Turning to `Cc1ccc(CNS(=O)(=O)c2ccsc2C(=O)O)cc1`, the affinity in assay [2], expressed as Ki, was 58 µM.
